Patent publication US11464770B2, “Anticancer pharmaceutical composition” (NATIONAL CANCER CENTER, priority 2016, dated 2022)
Like-named read-outs stand apart in the source and are kept apart here.

Experiments:
[1] = system: RT4: human urinary bladder transitional cell papilloma; assay: Cell based assay, cytotoxicity in RT4 papilloma cells (selectivity); conditions: Homo sapiens, RT-4; RT4 cells
Description: Commercially available bladder cancer, prostate cancer, lung cancer, breast cancer, blood cancer, pancreatic cancer, colorectal cancer, brain cancer, neuroblastoma, melanoma, liver cancer, cervical carcinoma, ovarian cancer, renal cancer, and papilloma cell lines were each treated with trypsin-EDTA and cultured, followed by being seeded in each well of a 96 well plate. […] The treated cells were additionally cultured for 72 hours, and cell viability was measured by using an ATP detection method (CellTiter-Glo® Luminescent Cell Viability Assay, Promega).

[2] = system: prostate cancer cell lines (e.g. DU145/TXR); assay: Cell based assay, cell viability (CellTiter-Glo), prostate cancer cell lines; conditions: Homo sapiens, 72 hours treatment, final concentration 0 to 2 μM
Description: (§1) Commercially available bladder cancer, prostate cancer, lung cancer, breast cancer, blood cancer, pancreatic cancer, colorectal cancer, brain cancer, neuroblastoma, melanoma, liver cancer, cervical carcinoma, ovarian cancer, renal cancer, and papilloma cell lines were each treated with trypsin-EDTA and cultured, followed by being seeded in each well of a 96 well plate. After 24 hours of treatment at constant temperature, the respective cells were treated with the candidate compound so that a final concentration became 0 to 2 μM. The treated cells were additionally cultured for 72 hours, and cell viability was measured by using an ATP detection method (CellTiter-Glo® Luminescent Cell Viability Assay, Promega).

[3] = system: neuroblastoma cell lines; assay: Cell based assay, cell viability (CellTiter-Glo), neuroblastoma cell lines; conditions: Homo sapiens; SH-SY5Y cell line
Description: as §1

[4] = CWR22 cells, read-out: IC50, prostate cancer cell line CWR22
[5] = DU-145, DU145/TXR cells, read-out: IC50, prostate cancer cell line DU145/TXR
[6] = DU-145, DU145 cells, read-out: IC50, prostate cancer cell line DU145
[7] = LNcap cells, read-out: IC50, prostate cancer cell line LNcap
[8] = PC-3 cells, read-out: IC50, prostate cancer cell line PC-3

Row | Compound | IC50 [1] | IC50 [2, 4] | IC50 [2, 5] | IC50 [2, 6] | IC50 [2, 7] | IC50 [2, 8] | IC50 [3]
1 | CSc1c(C(C)=O)c(=O)c2c(Cl)ccc(Br)c2n1C [Compound 5, 3-acetyl-8-bromo-5-chloro-1-methyl-2-(methylthio)quinolin-4(1H)-one] | > 10000 nM | > 2000 nM | > 2000 nM | > 2000 nM | > 2000 nM | > 2000 nM | > 2000 nM
2 | CC(=O)c1c([S+]([O-])Cc2cccc(S(F)(F)(F)(F)F)c2)[nH]c2c(Br)ccc(Cl)c2c1=O (stereo not shown) [Compound 77, 3-acetyl-8-bromo-5-chloro-2-((3-(pentafluoro--sulfanyl)benzyl)sulfinyl)quinolin-4(1H)-one] | > 10000 nM | > 2000 nM | 930 nM | 930 nM | > 2000 nM | 1480 nM | > 2000 nM
3 | CC(=O)c1c([S+](C)[O-])n(C(=O)c2ccc(Br)cc2)c2c(Br)ccc(Cl)c2c1=O (stereo not shown) [Compound 9, 3-acetyl-8-bromo-1-(4-bromobenzoyl)-5-chloro-2-(methylsulfinyl)quinolin-4(1H)-one] | > 10000 nM | 1600 nM | 1350 nM | 1590 nM | > 2000 nM | 1470 nM | > 2000 nM
4 | CC(=O)c1c([S+](C)[O-])n(C(C)=O)c2c(Br)ccc(Cl)c2c1=O (stereo not shown) [Compound 19, 1,1′-(8-bromo-5-chloro-2-(methylsulfinyl)-4-oxoquinoline-1,3(4H)-diyl)bis(ethan-1-one)] | > 10000 nM | > 2000 nM | > 2000 nM | > 2000 nM | > 2000 nM | > 2000 nM | > 2000 nM
5 | CC(=O)c1c(S(C)(=O)=O)n(S(=O)(=O)c2ccc(C(C)(C)C)cc2)c2c(Br)ccc(Cl)c2c1=O [Compound 41, 3-acetyl-8-bromo-1-((4-(tert-butyl)phenyl)sulfonyl)-5-chloro-2-(methylsulfonyl)quinolin-4(1H)-one] | > 10000 nM | > 2000 nM | > 2000 nM | > 2000 nM | > 2000 nM | > 2000 nM | > 2000 nM
6 | CC(=O)c1c([S+]([O-])Cc2ccccc2C#N)[nH]c2c(Br)ccc(Cl)c2c1=O (stereo not shown) [Compound 58, 2-(((3-acetyl-8-bromo-5-chloro-4-oxo-1,4-dihydroquinolin-2-yl)sulfinyl)methyl)benzonitrile] | > 10000 nM | 1200 nM | 1210 nM | 1230 nM | 1440 nM | 1300 nM | > 2000 nM
7 | COc1cccc2[nH]c([S+]([O-])Cc3cc(C)on3)c(C(C)=O)c(=O)c12 (stereo not shown) [Compound 94, 3-acetyl-5-methoxy-2-(((5-methylisoxazol-3-yl)methyl)sulfinyl)quinolin-4(1H)-one] | > 10000 nM | > 2000 nM | > 2000 nM | > 2000 nM | > 2000 nM |  | 1760 nM
8 | COc1ccccc1Sc1[nH]c2c(Br)ccc(Cl)c2c(=O)c1C(C)=O [Compound 14, 3-acetyl-8-bromo-5-chloro-2-((2-methoxyphenyl)thio)quinolin-4(1H)-one] | > 10000 nM | > 2000 nM | > 2000 nM | > 2000 nM | > 2000 nM | > 2000 nM | > 2000 nM
9 | CC(=O)c1c(SCc2cccc(I)c2)[nH]c2c(Br)ccc(Cl)c2c1=O [Compound 47, 3-acetyl-8-bromo-5-chloro-2-((3-iodobenzyl)thio)quinolin-4(1H)-one] | > 10000 nM | > 2000 nM | > 2000 nM | > 2000 nM | > 2000 nM | > 2000 nM | > 2000 nM
10 | CC(=O)c1c([S+]([O-])Cc2ccc(SC(F)(F)F)cc2)[nH]c2c(Cl)ccc(Cl)c2c1=O (stereo not shown) [Compound 79, 3-acetyl-5,8-dichloro-2-((4-((trifluoromethyl)thio)benzyl)sulfinyl)quinolin-4(1H)-one] | > 10000 nM | > 2000 nM | > 2000 nM | > 2000 nM | > 2000 nM |  | > 2000 nM
11 | CC(=O)c1c([S+](C)[O-])[nH]c2c(Br)ccc(Cl)c2c1=O (stereo not shown) [Compound 1, 3-acetyl-8-bromo-5-chloro-2-(methylsulfinyl)quinolin-4(1H)-one] | > 10000 nM | 1830 nM | 1650 nM | 1900 nM | > 2000 nM | 1640 nM | > 2000 nM
12 | CC(=O)c1c(S(C)(=O)=O)n(C(=O)c2ccc(Br)cc2)c2c(Br)ccc(Cl)c2c1=O [Compound 21, 3-acetyl-8-bromo-1-(4-bromobenzoyl)-5-chloro-2-(methylsulfonyl)quinolin-4(1H)-one] | > 10000 nM | > 2000 nM | > 2000 nM | > 2000 nM | > 2000 nM | > 2000 nM | > 2000 nM
13 | CC(=O)c1c([S+]([O-])Cc2ccc(N)nc2)[nH]c2c(Br)ccc(Cl)c2c1=O (stereo not shown) [Compound 100, 3-acetyl-2-(((6-aminopyridin-3-yl)methyl)sulfinyl)-8-bromo-5-chloroquinolin-4(1H)-one] | > 10000 nM | > 2000 nM | > 2000 nM | > 2000 nM | > 2000 nM |  | > 2000 nM
14 | CC(=O)c1c([S+]([O-])Cc2ccc(C(F)(F)F)o2)[nH]c2c(F)ccc(F)c2c1=O (stereo not shown) [Compound 81, 3-acetyl-5,8-difluoro-2-(((5-(trifluoromethyl)furan-2-yl)methyl)sulfinyl)quinolin-4(1H)-one] | > 10000 nM | > 2000 nM | > 2000 nM | > 2000 nM | > 2000 nM |  | > 2000 nM
15 | CC(=O)c1c([S+]([O-])Cc2ccccc2)nc2c(Br)ccc(Cl)c2c1O (stereo not shown) [Compound 53, 1-(2-(benzylsulfinyl)-8-bromo-5-chloro-4-hydroxyquinolin-3-yl)ethan-1-one] | > 10000 nM | > 2000 nM | > 2000 nM | > 2000 nM | > 2000 nM |  | > 2000 nM
16 | CC(=O)c1c([S+]([O-])c2ccc(Br)cc2)[nH]c2c(Br)ccc(Cl)c2c1=O (stereo not shown) [Compound 17, 3-acetyl-8-bromo-2-((4-bromophenyl)sulfinyl)-5-chloroquinolin-4(1H)-one] | > 10000 nM | > 2000 nM | > 2000 nM | > 2000 nM | > 2000 nM |  | > 2000 nM
17 | CC(=O)c1c([S+]([O-])Cc2ccc(S(F)(F)(F)(F)F)cc2F)[nH]c2c(Br)ccc(Cl)c2c1=O (stereo not shown) [Compound 69, 3-acetyl-8-bromo-5-chloro-2-((2-fluoro-4-(pentafluoro-16-sulfanyl)benzyl)sulfinyl)quinolin-4(1H)-one] | > 10000 nM | 1870 nM | 1110 nM | 1000 nM | > 2000 nM | 1300 nM | > 2000 nM
18 | CC(=O)c1c([S+]([O-])Cc2ccc(C(=O)c3ccccc3)cc2)[nH]c2c(Br)ccc(Cl)c2c1=O (stereo not shown) [Compound 63, 3-acetyl-2-((4-benzoylbenzyl)sulfinyl)-8-bromo-5-chloroquinolin-4(1H)-one] | > 10000 nM | > 2000 nM | > 2000 nM | > 2000 nM | > 2000 nM |  | > 2000 nM
19 | CC(=O)c1c(Sc2ccccc2)[nH]c2c(Br)ccc(Cl)c2c1=O [Compound 12, 3-acetyl-8-bromo-5-chloro-2-(phenylthio)quinolin-4(1H)-one] | > 10000 nM | > 2000 nM | > 2000 nM | > 2000 nM | > 2000 nM | > 2000 nM | > 2000 nM
20 | Cc1cc(C[S+]([O-])c2[nH]c3c(Cl)ccc(Cl)c3c(=O)c2C(=O)c2ccccc2)no1 (stereo not shown) [Compound 88, 3-benzoyl-5,8-dichloro-2-(((5-methylisoxazol-3-yl)methyl)sulfinyl)quinolin-4(1H)-one] | > 10000 nM | > 2000 nM | > 2000 nM | > 2000 nM | > 2000 nM |  | 1510 nM
21 | CC(=O)c1c([S+]([O-])CC#N)[nH]c2c(Br)ccc(Cl)c2c1=O (stereo not shown) [Compound 65, 2-((3-acetyl-8-bromo-5-chloro-4-oxo-1,4-dihydroquinolin-2-yl)sulfinyl)acetonitrile] | > 10000 nM | > 2000 nM | > 2000 nM | > 2000 nM | > 2000 nM | > 2000 nM | > 2000 nM
22 | CC(=O)c1c([S+]([O-])C(C)c2ccccc2)[nH]c2c(Br)ccc(Cl)c2c1=O (stereo not shown) [Compound 26, 3-acetyl-8-bromo-5-chloro-2-((1-phenylethyl)sulfinyl)quinolin-4(1H)-one] | > 10000 nM | > 2000 nM | > 2000 nM | > 2000 nM | > 2000 nM |  | > 2000 nM
